The values below come from patent publication US12180226B2, “Spirotricycle RIPK1 inhibitors and methods of uses thereof” (Merck Sharp & Dohme LLC, priority 2021, dated 2024).

Usually EC50 stands for the concentration that produces a half-maximal response.

This experiment has as its target RIPK1 (recombinant GST-RIPK1 kinase domain, residues 1-327) (Homo sapiens (Human), UniProt Q13546). The experiment can be described thus: RIPK1-ADP-Glo Enzymatic Assay. It counts as biochemical. The note with it: ADP-Glo; 25 nM GST-RIPK1, 300 μM ATP; assay lower limit ~25 nM; read-out: RIPK1 V0 Ec50. Put shortly: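 GST-tagged kinase domain (residues 1-327, Sf21-expressed), 25 nM, pre-incubated 30 min with compound at ambient temperature, then reacted 150 min with 300 μM ATP and 3 μM dephosphorylated MBP in HEPES pH 7.3 buffer. ADP measured by ADP-Glo luminescence; EC50 from ten-point titration (top 100000 nM), four-parameter fit.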
In general terms: ADP-Glo first removes unused ATP, then detects ADP through luciferase.

Chain of RIPK1 (recombinant GST-RIPK1 kinase domain, residues 1-327) (Q13546 1-327): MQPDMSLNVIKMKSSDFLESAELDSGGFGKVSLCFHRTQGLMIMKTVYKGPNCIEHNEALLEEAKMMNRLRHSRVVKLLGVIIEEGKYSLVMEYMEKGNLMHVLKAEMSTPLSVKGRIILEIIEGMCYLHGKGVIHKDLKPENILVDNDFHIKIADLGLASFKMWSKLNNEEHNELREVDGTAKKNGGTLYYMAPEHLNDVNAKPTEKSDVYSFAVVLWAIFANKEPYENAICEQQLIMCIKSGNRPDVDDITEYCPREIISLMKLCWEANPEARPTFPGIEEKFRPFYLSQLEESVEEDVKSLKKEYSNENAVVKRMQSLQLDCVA

For the compound `N#Cc1ccc(N2CCC3(CC2)O[C@@H]2CC[C@@H](c4cc(F)cc(F)c4)N2C3=O)nc1` [Example 4.44, 6-[(5′S,7a′R)-5′-(3,5-difluorophenyl)-3′-oxotetrahydro-1H,3′H-spiro[piperidine-4,2′-pyrrolo[2,1-b] [1,3]oxazol]-1-yl]pyridine-3-carbonitrile], the EC50 was below 0.025 µM.
As for `O=C1N2[C@@H](CC[C@H]2c2ccccc2)OC12CCN(c1cnc(-c3ncco3)cn1)CC2` [Example 21.14, (5′S,7a′R)-1-[5-(1,3-oxazol-2-yl)pyrazin-2-yl]-5′-phenyltetrahydro-3′H-spiro[piperidine-4,2′-pyrrolo[2,1-b][1,3]oxazol]-3′-one], the EC50 came to 0.0578 µM.
Then `O=C1N2[C@@H](CC[C@H]2c2ccccc2)OC12CCN(c1ncnc3ccnn13)CC2F` (single isomer, unassigned) [Example 4.98, (3[S or R],4[R or S], 5′S,7a′R)-3-fluoro-5′-phenyl-1-(pyrazolo [1,5-a][1,3,5]triazin-4-yl)tetrahydro-3′H-spiro[piperidine-4,2′-pyrrolo[2,1-b]oxazol]-3′-one], with 0.0363 µM; and `O=C(c1cncnc1)N1CCC2(CC1)O[C@@H]1CC[C@@H](c3cc(F)cc(F)c3)N1C2=O` [Example 6.40, (5′S,7a′R)-5′-(3,5-difluorophenyl)-1-(pyrimidine-5-car-bonyl)tetrahydro-3′H-spiro[piperidine-4,2′-pyrrolo[2,1-b][1,3]oxazol]-3′-one], with 0.436 µM.
As for `O=C(c1ccnnc1)N1CCC2(CC1)O[C@@H]1CC[C@@H](c3cc(F)cc(F)c3)N1C2=O` [Example 6.99, (5′S,7a′R)-5′-(3,5-difluorophenyl)-1-(pyridazine-4-carbon-yl)tetrahydro-3′H-spiro[piperidine-4,2′-pyrrolo[2,1-b][1,3]-oxazol]-3′-one], the EC50 turned out to be 0.146 µM.
As for `O=C(c1ccncn1)N1CCC2(CC1)O[C@@H]1CC[C@@H](c3cc(F)cc(F)c3)N1C2=O` [Example 6.63, (5′S,7a′R)-5′-(3,5-difluorophenyl)-1-(pyrimidine-4-carbon-yl)tetrahydro-3′H-spiro[piperidine-4,2′-pyrrolo[2,1-b][1,3]-oxazol]-3′-one], the EC50 worked out at 0.0579 µM.
Regarding `NC(=O)c1ccc(N2CCC3(CC2)O[C@@H]2CC[C@@H](c4ccccc4F)N2C3=O)n2ncnc12` [Example 4.151, 5-[(5′S,7a′R)-5′-(2-fluorophenyl)-3′-oxotetrahydro-1H,3′H-spiro[piperidine-4,2′-pyrrolo[2,1-b] [1,3]oxazol]-1-yl][1,2,4]triazolo[1,5-a] pyridine-8-carboxamide], the EC50 was below 0.025 µM.
For the compound `N#Cc1ccc(N2CCC3(CC2)O[C@@H]2CC[C@@H](c4cc(F)cc(F)c4)N2C3=O)cc1` [Example 4.68, 4-[(5′S,7a′R)-5′-(3,5-difluorophenyl)-3′-oxotetrahydro-1H,3′H-spiro[piperidine-4,2′-pyrrolo[2,1-b] [1,3]oxazol]-1-yl]benzonitrile], the EC50 was below 0.025 µM.
Take `CC1CC2(CCN1C(=O)c1ccccc1)O[C@@H]1CC[C@@H](c3cc(F)cc(F)c3)N1C2=O` (stereo partly drawn) [Example 6.105, (4R,5′S,7a′R)-1-(benzenecarbonyl)-5′-(3,5-difluorophenyl)-2-methyltetrahydro-3′H-spiro[piperidine-4,2′-pyrrolo[2,1-b] [1,3]oxazol]-3′-one]: the EC50 was 0.841 µM.
Consider `N#Cc1ccc(C(=O)N2CCC3(CC2)O[C@@H]2CC[C@@H](c4cc(F)cc(F)c4)N2C3=O)c(Cl)c1` [Example 5.22, 3-chloro-4-((5′S,7a′R)-5′-(3,5-difluorophenyl)-3′-oxotetrahydro-3′H-spiro [piperidine-4,2′-pyrrolo-[2,1-b]oxazole]-1-carbon-yl)benzonitrile], for which the EC50 is 0.392 µM.
With `COC(=O)c1cnc(N2CCC3(CC2)O[C@@H]2CC[C@@H](c4ccccc4)N2C3=O)cc1OC` [Example 4.210, methyl 4-methoxy-6-[(5′S,7a′R)-3′-oxo-5′-phenyltetrahydro-1H,3′H-spiro[piperidine-4,2′-pyrrolo[2,1-b] [1,3]oxazol]-1-yl]pyridine-3-carboxylate], the EC50 is 0.076 µM.
